The structures appear in SMILES notation.

One data set has as its system Phakopsora pachyrhizi. Briefly: Fungicidal activity against Phakopsora pachyrhizi / soybean / leaf disc preventative (Asian soybean rust). It is filed as in vivo. The settings on record: foliar, soybean leaf disks, compared to untreated control. On the procedure:
(§1) Leaf disks or leaf segments of various plant species are cut from plants grown in a greenhouse. The cut leaf disks or segments are placed in multiwell plates (24-well format) onto water agar. The leaf disks are sprayed with a test solution before (preventative) or after (curative) inoculation. Compounds to be tested are prepared as DMSO solutions (max. 10 mg/ml) which are diluted to the appropriate concentration with 0.025% Tween20 just before spraying. The inoculated leaf disks or segments are incubated under defined conditions (temperature, relative humidity, light, etc.) according to the respective test system. A single evaluation of disease level is carried out 3 to 14 days after inoculation, depending on the pathosystem. Percent disease control relative to the untreated check leaf disks or segments is then calculated.
Soybean leaf disks are placed on water agar in multiwell plates (24-well format) and sprayed with the formulated test compound diluted in water. One day after application leaf discs are inoculated by spraying a spore suspension on the lower leaf surface. After an incubation period in a climate cabinet of 24-36 hours in darkness at 20° C. and 75% rh leaf disc are kept at 20° C. with 12 h light/day and 75% rh. The activity of a compound is assessed as percent disease control compared to untreated when an appropriate level of disease damage appears in untreated check leaf disks (12-14 days after application).

Data set [1] has as its system Puccinia recondita f. sp. tritici. Briefly: Fungicidal activity against Puccinia recondita f. sp. tritici / wheat / leaf disc curative (brown rust). Format: in vivo. The conditions noted are these: foliar, 24 h, wheat leaf segments, curative (applied 1 day after inoculation), compared to untreated control. On the procedure:
as §1
Wheat leaf segments cv. Kanzler are placed on agar in multiwell plates (24-well format). The leaf segments are inoculated with a spore suspension of the fungus. Plates are stored in darkness at 19° C. and 75% rh. The formulated test compound diluted in water is applied 1 day after inoculation. The leaf segments are incubated at 19° C. and 75% rh under a light regime of 12 h light/12 h darkness in a climate cabinet and the activity of a compound is assessed as percent disease control compared to untreated when an appropriate level of disease damage appears in untreated check leaf segments (6-8 days after application).

The test system of data set [2] is Glomerella lagenarium (Colletotrichum lagenarium). Briefly: Fungicidal activity against Glomerella lagenarium (Colletotrichum lagenarium) liquid culture / cucumber / preventative (anthracnose). Format: cell-based. The conditions noted are these: Colletotrichum orbiculare, liquid culture (PDB), growth inhibition measured photometrically 3-4 days after application, compared to untreated control. Here is the method: Mycelia fragments or conidia suspensions of a fungus prepared either freshly from liquid cultures of the fungus or from cryogenic storage, are directly mixed into nutrient broth. DMSO solutions of the test compound (max. 10 mg/ml) are diluted with 0.025% Tween20 by a factor of 50 and 10 µl of this solution is pipetted into a microtiter plate (96-well format). The nutrient broth containing the fungal spores/mycelia fragments is then added to give an end concentration of the tested compound. The test plates are incubated in the dark at 24° C. and 96% relative humidity. The inhibition of fungal growth is determined photometrically after 2 to 7 days, depending on the pathosystem, and percent antifungal activity relative to the untreated check is calculated.
Conidia of the fungus from cryogenic storage are directly mixed into nutrient broth (PDB potato dextrose broth). After placing a (DMSO) solution of test compound into a microtiter plate (96-well format), the nutrient broth containing the fungal spores is added. The test plates are incubated at 24° C. and the inhibition of growth is measured photometrically 3-4 days after application.

For data set [3], the system named is Puccinia recondita f. sp. tritici. Kind of data set: Fungicidal activity against Puccinia recondita f. sp. tritici / wheat / leaf disc preventative (brown rust). It is filed as in vivo. The conditions noted are these: foliar, wheat leaf segments, preventative (inoculated 1 day after application), compared to untreated control. Here is the method:
as §1
Wheat leaf segments cv. Kanzler are placed on agar in multiwell plates (24-well format) and sprayed with the formulated test compound diluted in water. The leaf disks are inoculated with a spore suspension of the fungus 1 day after application. The inoculated leaf segments are incubated at 19° C. and 75% rh under a light regime of 12 h light/12 h darkness in a climate cabinet and the activity of a compound is assessed as percent disease control compared to untreated when an appropriate level of disease damage appears in untreated check leaf segments (7-9 days after application).

For orientation: pest or weed control means how far the test organism was held down. The inhibition of growth is the relative decrease from the control value, in per cent. A lower inhibition of growth goes with a weak effect. As usually defined, the melting point is the temperature of the solid-liquid transition. `Cc1cccn(Cc2ccc(-c3noc(C(F)(F)F)n3)cc2)c1=O` [Compound C-8, 3-methyl-1-[[4-[5-(trifluoromethyl)-1,2,4-oxadiazol-3-yl]phenyl]methyl]pyridin-2-one] yielded a melting point of 115 to 117 °C. For the same compound, in the data set with Phakopsora pachyrhizi, the pest or weed control at 200 ppm was no less than 80%. Also, the pest or weed control at 200 ppm in data set [1] was no less than 80%. The inhibition of growth at 20 ppm in data set [2] is no less than 80%. In data set [3], this compound had a pest or weed control at 200 ppm of no less than 80%.

Turning to `N#Cc1ccc(=O)n(Cc2ccc(-c3noc(C(F)(F)F)n3)c(F)c2F)c1` [Compound C-11, 1-[[2,3-difluoro-4-[5-(trifluoromethyl)-1,2,4-oxadiazol-3-yl]phenyl]methyl]-6-oxo-pyridine-3-carbonitrile], the melting point was 144 to 146 °C. This compound also gave a pest or weed control at 200 ppm in the data set on Phakopsora pachyrhizi of no less than 80%. In data set [1], the pest or weed control at 200 ppm was no less than 80%. The inhibition of growth at 20 ppm in data set [2] was no less than 80%. The pest or weed control at 200 ppm in data set [3] was no less than 80%.

Regarding `Cc1cccc(=O)n1Cc1ccc(-c2noc(C(F)(F)F)n2)cc1` [Compound C-4, 6-methyl-1-[[4-[5-(trifluoromethyl)-1,2,4-oxadiazol-3-yl]phenyl]methyl]pyridin-2-one], the melting point is 88 to 90 °C. The pest or weed control at 200 ppm in the data set on Phakopsora pachyrhizi was no less than 80%. In data set [1], the pest or weed control at 200 ppm was no less than 80%. Also, in data set [2], the inhibition of growth at 20 ppm was no less than 80%. The pest or weed control at 200 ppm in data set [3] was no less than 80%.

With `N#Cc1ccc(=O)n(Cc2ccc(-c3noc(C(F)(F)F)n3)cc2)c1` [Compound C-13, 6-oxo-1-[[4-[5-(trifluoromethylyl)-1,2,4-oxadiazol-3-yl]phenyl]methyl]pyridine-3-carbonitrile], the melting point is 174 to 176 °C. Also, in the data set on Phakopsora pachyrhizi, the pest or weed control at 200 ppm was no less than 80%. The pest or weed control at 200 ppm in data set [1] was no less than 80%. Also, the inhibition of growth at 20 ppm in data set [2] is no less than 80%. In addition, the pest or weed control at 200 ppm in data set [3] was no less than 80%.

In turn, `N#Cc1cccn(Cc2ccc(-c3noc(C(F)(F)F)n3)cc2)c1=O` [Compound C-7, 2-oxo-1-[[4-[5-(trifluoromethyly)-1,2,4-oxadiazol-3-yl]phenyl]methyl]pyridine-3-carbonitrile] came in with a melting point of 178 to 180 °C. In the data set with Phakopsora pachyrhizi, the pest or weed control at 200 ppm was no less than 80%. Besides, in data set [1], the pest or weed control at 200 ppm was no less than 80%. Besides, the inhibition of growth at 20 ppm in data set [2] is no less than 80%. The compound also yielded a pest or weed control at 200 ppm in data set [3] of no less than 80%.
